For one experiment, the system named is K-562 cells. As to the kind of experiment: Cell growth inhibition assay (CellTiter-Glo), K-562. The settings on record: Homo sapiens, K562, read-out: K-562 TGI. The class given is cell-based, human. In short, it runs like this: (§1)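 Dose-response over 3-fold dilutions from 10 μM; 0.1% DMSO control. Endpoint: CellTiter-Glo ATP signal, background-subtracted and day 0-corrected.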
(In general: In ATP-based viability assays light output follows the ATP content of the culture.)

For the next experiment, the target named is His-Brd4(44-477) (Homo sapiens (Human), UniProt O60885). Nature of the experiment: TR-FRET in-vitro binding assay for BRD4. The settings on record: biochemical. A digest of the protocol:
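Bromodomain protein (45 nM in its addition solution) and tetra-acetylated histone H4 peptide (AcK5/8/12/16; 60 nM in its addition solution) were incubated with compounds for 35 min at 30 °C in 50 mM HEPES pH 7.5, 50 mM NaCl, 0.005% Tween20, 0.1% BSA. Eu-anti-His6 plus streptavidin-allophycocyanin detection followed, with TR-FRET read-out.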
For orientation: TR-FRET usually uses a lanthanide donor and a delayed reading to cut background.

A further experiment concerns THP-1 cells. Nature of the experiment: Cell growth inhibition assay (CellTiter-Glo), THP-1. Format: cell-based. To be noted: Homo sapiens, read-out: THP-1 TGI. A digest of the protocol: as §1
Experiment [1] has as its target His-CREBBP (1081-1197) bromodomain (Homo sapiens (Human), UniProt Q92793). As to the kind of experiment: AlphaScreen in-vitro binding assay for CREBBP. To be noted: biochemical. A digest of the protocol:
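Ni-chelate acceptor and streptavidin donor beads (45 µg/mL each, in 50 mM HEPES pH 7.5, 150 mM NaCl, 0.02% BSA) were then added for 60 min at room temperature. IC50 came from 8-point non-linear regression.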
In general terms: Alpha assays give light when donor and acceptor beads are brought close together.

Chain of His-CREBBP (1081-1197) bromodomain (Q92793 1081-1197): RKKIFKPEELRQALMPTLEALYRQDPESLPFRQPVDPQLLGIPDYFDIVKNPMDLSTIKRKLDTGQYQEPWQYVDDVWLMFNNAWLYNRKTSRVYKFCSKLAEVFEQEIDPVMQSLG

The term IC50 denotes the concentration at which inhibition is half-maximal. A low value points to inhibition by little substance. Turning to `Cc1nn(C2CN(C)C2)c2c1C(c1ccc(Cl)cc1)N(c1cc(C)c3nnc(C)n3c1)C2=O` (stereo not drawn) [Example 157, 4-(4-chlorophenyl)-5-(3,8-dimethyl-[1,2,4]triazolo[4,3-a]pyridin-6-yl)-3-methyl-1-(1-methylazetidin-3-yl)-4,5-dihydropyrrolo[3,4-c]pyrazol-6(1H)-one], the IC (total growth inhibition) in the experiment with K-562 cells was above 10 µM; in the experiment on THP-1 cells, 0.312 µM. The IC50 was 77 nM on His-Brd4(44-477) and above 37 µM in experiment [1].
As to `Cc1cc(N2C(=O)c3nn(C4CN(C)C4)c(C)c3C2c2ccc(Cl)cc2)cn2c(C)nnc12` (stereo not drawn) [Example 158, 4-(4-chlorophenyl)-5-(3,8-dimethyl-[1,2,4]triazolo[4,3-a]pyridin-6-yl)-3-methyl-2-(1-methylazetidin-3-yl)-4,5-dihydropyrrolo[3,4-c]pyrazol-6(2H)-one], the figures for the IC (total growth inhibition) in the experiment with K-562 cells and in the experiment with THP-1 cells were above 10 µM and 0.298 µM, respectively. The IC50 at His-Brd4(44-477) was found to be 82 nM; in experiment [1], 3.3 µM.
In the case of `Cc1nn(C[C@H](O)C(F)(F)F)c2c1[C@@H](c1ccc(Cl)cc1)N(c1cc(C)c3nnc(C)n3c1)C2=O` [Example 167, (R)-4-(4-chlorophenyl)-5-(3,8-dimethyl-[1,2,4]triazolo[4,3-a]pyridin-6-yl)-3-methyl-1-((S)-3,3,3-trifluoro-2-hydroxypropyl)-4,5-dihydropyrrolo[3,4-c]pyrazol-6(1H)-one], the IC (total growth inhibition) in the experiment on K-562 cells is above 10 µM; with THP-1 cells it was 0.117 µM. For the same molecule, the concentration for half-maximal inhibition (IC50) at His-Brd4(44-477) was 40 nM; in experiment [1], 12 µM.

Values taken from patent US8975417B2, “Pyrazolopyrrolidine derivatives and their use in the treatment of disease” (Novartis AG, priority 2013, dated 2015).
